By refractive index is commonly meant the speed of light in vacuum divided by its phase velocity in the sample. What is called vapor or sublimation pressure is the pressure of vapour in equilibrium with the condensed phase.

This note sets out measurements from the NIST ThermoML archive (doi:10.1021/je2008445).

Data set [1] is described as follows: refractive index (Na D-line) (dimensionless). As to conditions: 298.15 K; 101.33 kPa; Liquid; Standard Abbe refractometry.
For data set [2] the following is noted: Liquid, Ebulliometric method (Recirculating still).

Numbers after ± are expanded uncertainties.

On to `CCOC(C)=O` [ethyl acetate], for which the refractive index in data set [1] is 1.3712 ± 0.0005. The “vapor or sublimation pressure” value in data set [2] (350.23 K) stood at 101.33 ± 1.6 kPa.

`C[Si](C)(C)O[Si](C)(C)C` [hexamethyldisiloxane]: the refractive index in data set [1] worked out at 1.3737 ± 0.0005. Further, in data set [2] (372.73 K), the “vapor or sublimation pressure” value was 101.33 ± 1.6 kPa.
